doi:10.1101/2024.08.19.608619, “Discovery of potent SARS-CoV-2 nsp3 macrodomain inhibitors uncovers lack of translation to cellular antiviral response” (bioRxiv, 2024)
Read-outs that look alike come from different tables or passages of the source.

Tests used:
Test in all cases: biochemical
Parameters in all cases: In vitro kinase panel profiling, per cent remaining kinase activity at 10 uM
CDK1/cyclinB(h) = CDK1/cyclinB(h) (Homo sapiens, UniProt P06493); details: atp_concentration=45, read-out: % of control remaining
Sequence of CDK1/cyclinB(h) (P06493 whole entry): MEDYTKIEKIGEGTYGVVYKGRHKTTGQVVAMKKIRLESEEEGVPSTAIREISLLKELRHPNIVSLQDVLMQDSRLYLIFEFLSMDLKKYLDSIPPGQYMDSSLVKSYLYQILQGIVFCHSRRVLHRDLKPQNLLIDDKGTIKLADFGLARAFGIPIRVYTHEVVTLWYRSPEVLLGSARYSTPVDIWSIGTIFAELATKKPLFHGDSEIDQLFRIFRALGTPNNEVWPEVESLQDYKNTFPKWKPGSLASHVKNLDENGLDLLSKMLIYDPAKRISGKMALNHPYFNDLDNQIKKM
Sequence of CDK1/cyclinB(h) (P14635 whole entry partner): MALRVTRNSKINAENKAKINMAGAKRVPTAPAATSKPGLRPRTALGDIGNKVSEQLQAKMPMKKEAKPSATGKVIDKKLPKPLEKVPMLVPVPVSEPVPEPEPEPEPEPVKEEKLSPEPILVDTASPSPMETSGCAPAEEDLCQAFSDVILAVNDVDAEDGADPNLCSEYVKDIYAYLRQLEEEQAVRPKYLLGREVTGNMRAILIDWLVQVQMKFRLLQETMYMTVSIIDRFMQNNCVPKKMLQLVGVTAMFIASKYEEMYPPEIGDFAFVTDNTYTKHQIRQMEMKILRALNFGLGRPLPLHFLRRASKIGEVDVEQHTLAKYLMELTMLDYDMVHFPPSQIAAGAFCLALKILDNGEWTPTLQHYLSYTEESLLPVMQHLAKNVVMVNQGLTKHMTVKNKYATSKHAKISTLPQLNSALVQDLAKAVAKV
Text: (§1) We derisk potential for off-target activity by profiling the compound in a CEREP panel, a standard secondary pharmacology assessment, as well as a kinase panel to derisk a potential hinge-binding motif in our leads, and a PARP panel to derisk activity against human […]. Reassuringly, the compounds are selective, with the only off-targets being moderate human CHRM2 and KOR receptors activity associated with ASAP-0011198.

CHK1(h) = target: T1, CHK1(h) (Homo sapiens, UniProt O14757); details: atp_concentration=90, read-out: % of control remaining
T1 construct: gene CHEK1
T1 sequence (O14757 1-476): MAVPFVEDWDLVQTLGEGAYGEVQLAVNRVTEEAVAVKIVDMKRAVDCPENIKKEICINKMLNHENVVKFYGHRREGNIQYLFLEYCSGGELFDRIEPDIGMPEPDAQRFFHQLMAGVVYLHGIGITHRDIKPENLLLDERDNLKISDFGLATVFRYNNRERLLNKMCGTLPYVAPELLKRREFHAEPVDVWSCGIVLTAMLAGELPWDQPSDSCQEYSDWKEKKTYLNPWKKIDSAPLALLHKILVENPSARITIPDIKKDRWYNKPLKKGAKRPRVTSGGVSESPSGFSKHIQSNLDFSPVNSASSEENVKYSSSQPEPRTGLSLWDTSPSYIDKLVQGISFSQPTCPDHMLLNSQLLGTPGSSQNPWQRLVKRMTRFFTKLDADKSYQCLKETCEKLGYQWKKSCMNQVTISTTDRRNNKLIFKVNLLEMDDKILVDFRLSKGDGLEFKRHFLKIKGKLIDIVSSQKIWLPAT
Text: as §1

Lyn(h) = Lyn(h) (Homo sapiens, UniProt P07948); details: atp_concentration=70, read-out: % of control remaining
Sequence of Lyn(h) (P07948 whole entry): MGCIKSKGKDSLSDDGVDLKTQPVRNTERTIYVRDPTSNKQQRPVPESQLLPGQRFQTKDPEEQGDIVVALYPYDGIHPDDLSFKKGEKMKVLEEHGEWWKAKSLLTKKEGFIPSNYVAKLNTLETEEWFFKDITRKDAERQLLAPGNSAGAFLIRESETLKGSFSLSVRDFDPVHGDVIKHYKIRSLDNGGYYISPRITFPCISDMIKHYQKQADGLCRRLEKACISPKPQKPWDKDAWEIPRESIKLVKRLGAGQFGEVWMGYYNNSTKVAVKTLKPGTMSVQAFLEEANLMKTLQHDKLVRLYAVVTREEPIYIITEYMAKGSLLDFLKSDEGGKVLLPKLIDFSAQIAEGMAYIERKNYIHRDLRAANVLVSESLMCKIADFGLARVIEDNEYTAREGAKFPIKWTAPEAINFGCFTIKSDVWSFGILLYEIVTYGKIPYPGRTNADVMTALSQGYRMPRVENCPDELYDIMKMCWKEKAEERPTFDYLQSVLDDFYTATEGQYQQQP
Text: as §1

PKG1α(h) = target: T2, PKG1α(h) (Homo sapiens, UniProt Q13976); details: atp_concentration=90, read-out: % of control remaining
T2 construct: gene PRKG1; isoform alpha
T2 sequence (Q13976 1-671): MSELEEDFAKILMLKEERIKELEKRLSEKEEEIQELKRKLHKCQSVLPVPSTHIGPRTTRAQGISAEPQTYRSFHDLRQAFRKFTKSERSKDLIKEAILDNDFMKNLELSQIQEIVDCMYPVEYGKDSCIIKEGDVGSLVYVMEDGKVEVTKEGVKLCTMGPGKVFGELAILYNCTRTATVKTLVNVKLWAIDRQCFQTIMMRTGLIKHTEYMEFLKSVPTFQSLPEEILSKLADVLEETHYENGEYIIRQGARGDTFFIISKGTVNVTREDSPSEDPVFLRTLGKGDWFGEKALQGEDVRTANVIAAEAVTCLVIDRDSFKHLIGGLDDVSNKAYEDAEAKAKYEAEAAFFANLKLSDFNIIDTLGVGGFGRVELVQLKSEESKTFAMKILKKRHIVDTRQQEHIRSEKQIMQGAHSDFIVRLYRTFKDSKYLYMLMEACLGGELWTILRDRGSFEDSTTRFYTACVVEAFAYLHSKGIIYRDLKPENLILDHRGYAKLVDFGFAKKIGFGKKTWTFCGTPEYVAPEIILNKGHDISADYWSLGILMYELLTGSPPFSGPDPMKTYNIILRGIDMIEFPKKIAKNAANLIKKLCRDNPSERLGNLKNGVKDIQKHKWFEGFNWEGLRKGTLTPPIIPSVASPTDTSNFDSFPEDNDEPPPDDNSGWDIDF
Text: as §1

Plk3(h) = Plk3(h) (Homo sapiens, UniProt Q9H4B4); details: atp_concentration=70, read-out: % of control remaining
Sequence of Plk3(h) (Q9H4B4 whole entry): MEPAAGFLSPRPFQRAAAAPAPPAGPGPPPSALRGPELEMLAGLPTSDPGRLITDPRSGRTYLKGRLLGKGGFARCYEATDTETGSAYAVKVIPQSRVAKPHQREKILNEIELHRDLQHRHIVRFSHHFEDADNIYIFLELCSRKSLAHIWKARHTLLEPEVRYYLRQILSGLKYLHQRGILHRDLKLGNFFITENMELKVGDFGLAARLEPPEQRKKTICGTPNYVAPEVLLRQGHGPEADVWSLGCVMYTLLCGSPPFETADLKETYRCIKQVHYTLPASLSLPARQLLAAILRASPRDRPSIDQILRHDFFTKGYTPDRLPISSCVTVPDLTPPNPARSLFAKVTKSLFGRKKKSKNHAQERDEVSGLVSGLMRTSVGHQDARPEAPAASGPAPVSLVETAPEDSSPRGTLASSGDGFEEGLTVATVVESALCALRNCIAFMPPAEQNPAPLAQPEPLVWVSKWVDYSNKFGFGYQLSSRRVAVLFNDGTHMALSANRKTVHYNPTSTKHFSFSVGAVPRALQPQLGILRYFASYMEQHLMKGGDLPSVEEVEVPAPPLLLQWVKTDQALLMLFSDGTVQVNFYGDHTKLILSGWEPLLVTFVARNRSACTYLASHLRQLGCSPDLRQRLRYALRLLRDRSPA
Text: as §1

SAPK2a(h) = target: T3, SAPK2a(h) (Homo sapiens, UniProt Q16539); details: atp_concentration=90, read-out: % of control remaining
T3 construct: gene MAPK14
T3 sequence (Q16539 whole entry): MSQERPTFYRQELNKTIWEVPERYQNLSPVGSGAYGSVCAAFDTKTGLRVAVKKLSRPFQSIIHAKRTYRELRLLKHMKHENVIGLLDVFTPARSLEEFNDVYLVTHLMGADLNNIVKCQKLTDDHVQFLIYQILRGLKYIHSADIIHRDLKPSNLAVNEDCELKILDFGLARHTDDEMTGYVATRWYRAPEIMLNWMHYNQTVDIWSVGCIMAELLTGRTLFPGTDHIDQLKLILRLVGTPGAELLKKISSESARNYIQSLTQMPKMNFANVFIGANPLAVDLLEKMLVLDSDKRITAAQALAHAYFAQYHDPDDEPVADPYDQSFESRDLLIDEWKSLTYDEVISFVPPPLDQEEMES
Text: as §1

c-RAF(h) = target: T4, c-RAF(h) (Homo sapiens, UniProt P04049); details: atp_concentration=120, read-out: % of control remaining
T4 construct: gene RAF1
T4 sequence (P04049 whole entry): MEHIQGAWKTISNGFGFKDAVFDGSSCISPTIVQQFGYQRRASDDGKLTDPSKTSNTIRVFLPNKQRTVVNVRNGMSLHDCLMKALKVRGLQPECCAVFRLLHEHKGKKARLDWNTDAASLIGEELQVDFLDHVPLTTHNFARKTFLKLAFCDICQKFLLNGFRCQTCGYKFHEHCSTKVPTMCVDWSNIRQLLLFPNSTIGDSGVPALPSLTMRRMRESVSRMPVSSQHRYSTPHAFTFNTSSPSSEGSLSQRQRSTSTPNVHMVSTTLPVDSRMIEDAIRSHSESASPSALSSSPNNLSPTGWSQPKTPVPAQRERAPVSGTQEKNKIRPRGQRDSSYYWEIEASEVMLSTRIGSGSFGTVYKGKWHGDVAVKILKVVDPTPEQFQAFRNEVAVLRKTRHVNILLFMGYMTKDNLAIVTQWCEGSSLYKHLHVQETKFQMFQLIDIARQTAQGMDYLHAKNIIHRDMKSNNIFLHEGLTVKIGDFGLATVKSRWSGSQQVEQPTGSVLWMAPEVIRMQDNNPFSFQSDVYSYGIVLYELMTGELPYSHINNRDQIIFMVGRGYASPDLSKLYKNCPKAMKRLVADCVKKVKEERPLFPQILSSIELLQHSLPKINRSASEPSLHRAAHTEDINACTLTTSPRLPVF
Text: as §1

eEF-2K(h) = target: T5, eEF-2K(h) (Homo sapiens, UniProt O00418); details: atp_concentration=15, read-out: % of control remaining
T5 construct: gene EEF2K
T5 sequence (O00418 1-725): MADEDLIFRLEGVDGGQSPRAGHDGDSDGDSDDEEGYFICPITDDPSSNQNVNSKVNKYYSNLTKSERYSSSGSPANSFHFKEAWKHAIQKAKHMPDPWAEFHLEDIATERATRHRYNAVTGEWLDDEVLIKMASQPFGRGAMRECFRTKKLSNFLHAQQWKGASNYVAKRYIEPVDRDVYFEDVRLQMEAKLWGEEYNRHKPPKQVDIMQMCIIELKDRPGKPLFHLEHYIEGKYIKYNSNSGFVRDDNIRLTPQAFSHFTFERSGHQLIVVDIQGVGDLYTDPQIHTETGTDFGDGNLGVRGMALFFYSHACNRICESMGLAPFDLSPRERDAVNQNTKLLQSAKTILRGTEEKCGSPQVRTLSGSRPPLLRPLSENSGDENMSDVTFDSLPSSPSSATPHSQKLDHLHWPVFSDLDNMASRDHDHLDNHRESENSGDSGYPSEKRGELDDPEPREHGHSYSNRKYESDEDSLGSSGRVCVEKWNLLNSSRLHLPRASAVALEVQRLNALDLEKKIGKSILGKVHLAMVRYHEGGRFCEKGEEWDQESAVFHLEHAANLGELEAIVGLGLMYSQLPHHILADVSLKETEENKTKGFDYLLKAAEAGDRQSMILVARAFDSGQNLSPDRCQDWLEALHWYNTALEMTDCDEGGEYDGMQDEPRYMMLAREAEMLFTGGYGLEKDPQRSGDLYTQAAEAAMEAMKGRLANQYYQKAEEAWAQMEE
Text: as §1

With C[C@H](C(=O)O)[C@@H](NC(=O)c1ncnc2[nH]ccc12)c1ccc(Br)cc1 [ASAP-0014722] the remaining activity at 10 µM (CDK1/cyclinB(h); batch_name=ASAP-0014722-002) was 92%, the remaining activity at 10 µM (CHK1(h); batch_name=ASAP-0014722-002) was 99% and the remaining activity at 10 µM (Lyn(h); batch_name=ASAP-0014722-002) was 94%. The remaining activity at 10 µM (PKG1α(h); batch_name=ASAP-0014722-002) was 118%, the remaining activity at 10 µM (Plk3(h); batch_name=ASAP-0014722-002) was 98% and the remaining activity at 10 µM (SAPK2a(h); batch_name=ASAP-0014722-002) was 103%. The remaining activity at 10 µM (c-RAF(h); batch_name=ASAP-0014722-002) was 108% and the remaining activity at 10 µM (eEF-2K(h); batch_name=ASAP-0014722-002) was 85%.
CNCc1cc(-c2cc3c(N[C@@H](c4ccc5c(c4)S(=O)(=O)CCC5)C(C)C)ncnc3[nH]2)co1 [ASAP-0011176] was tested, and the remaining activity at 10 µM (CDK1/cyclinB(h); batch_name=ASAP-0011176-002) was 97%, the remaining activity at 10 µM (CHK1(h); batch_name=ASAP-0011176-002) was 111% and the remaining activity at 10 µM (Lyn(h); batch_name=ASAP-0011176-002) was 47%. For the same compound, the remaining activity at 10 µM (PKG1α(h); batch_name=ASAP-0011176-002) was 115%, the remaining activity at 10 µM (Plk3(h); batch_name=ASAP-0011176-002) was 124% and the remaining activity at 10 µM (SAPK2a(h); batch_name=ASAP-0011176-002) was 97%. The remaining activity at 10 µM (c-RAF(h); batch_name=ASAP-0011176-002) was 100% and the remaining activity at 10 µM (eEF-2K(h); batch_name=ASAP-0011176-002) was 82%.
CC(C)[C@H](Nc1ncnc2[nH]ccc12)c1ccc2c(c1)S(=O)(=O)CCC2 [ASAP-0008674] was tested, and the remaining activity at 10 µM (CDK1/cyclinB(h); batch_name=ASAP-0008674-002) was 93%, the remaining activity at 10 µM (CHK1(h); batch_name=ASAP-0008674-002) was 110% and the remaining activity at 10 µM (Lyn(h); batch_name=ASAP-0008674-002) was 104%. It also gave a remaining activity at 10 µM (PKG1α(h); batch_name=ASAP-0008674-002) of 123%, a remaining activity at 10 µM (Plk3(h); batch_name=ASAP-0008674-002) of 112% and a remaining activity at 10 µM (SAPK2a(h); batch_name=ASAP-0008674-002) of 107%. The remaining activity at 10 µM (c-RAF(h); batch_name=ASAP-0008674-002) was 107% and the remaining activity at 10 µM (eEF-2K(h); batch_name=ASAP-0008674-002) was 93%.
CC(C)[C@H](Nc1ncnc2[nH]c(-c3cnn(C)c3C#N)cc12)c1ccc2c(n1)OCCO2 [ASAP-0010715] showed a remaining activity at 10 µM (CDK1/cyclinB(h); batch_name=ASAP-0010715-002) of 89%, a remaining activity at 10 µM (CHK1(h); batch_name=ASAP-0010715-002) of 119% and a remaining activity at 10 µM (Lyn(h); batch_name=ASAP-0010715-002) of 79%. The remaining activity at 10 µM (PKG1α(h); batch_name=ASAP-0010715-002) was 130%, the remaining activity at 10 µM (Plk3(h); batch_name=ASAP-0010715-002) was 102% and the remaining activity at 10 µM (SAPK2a(h); batch_name=ASAP-0010715-002) was 99%. The remaining activity at 10 µM (c-RAF(h); batch_name=ASAP-0010715-002) was 97% and the remaining activity at 10 µM (eEF-2K(h); batch_name=ASAP-0010715-002) was 108%.
Work on Cn1ncc(-c2cc3c(N[C@@H](c4ccc5c(n4)OCCO5)C(C)(C)C)ncnc3[nH]2)c1C#N [ASAP-0011221] yielded a remaining activity at 10 µM (CDK1/cyclinB(h); batch_name=ASAP-0011221-002) of 97%, a remaining activity at 10 µM (CHK1(h); batch_name=ASAP-0011221-002) of 125% and a remaining activity at 10 µM (Lyn(h); batch_name=ASAP-0011221-002) of 101%. It also gave a remaining activity at 10 µM (PKG1α(h); batch_name=ASAP-0011221-002) of 127%, a remaining activity at 10 µM (Plk3(h); batch_name=ASAP-0011221-002) of 77% and a remaining activity at 10 µM (SAPK2a(h); batch_name=ASAP-0011221-002) of 106%. For the same compound, the remaining activity at 10 µM (c-RAF(h); batch_name=ASAP-0011221-002) was 87% and the remaining activity at 10 µM (eEF-2K(h); batch_name=ASAP-0011221-002) was 124%.
Compound CC(C)C(Nc1ncnc2[nH]c(C(=O)NC3CCN(C)C3)cc12)c1ccc2c(c1)S(=O)(=O)CCC2 (stereo not shown) [ASAP-0011198] has a remaining activity at 10 µM (CDK1/cyclinB(h); batch_name=ASAP-0011198-002) of 103%, a remaining activity at 10 µM (CHK1(h); batch_name=ASAP-0011198-002) of 118% and a remaining activity at 10 µM (Lyn(h); batch_name=ASAP-0011198-002) of 107%. The remaining activity at 10 µM (PKG1α(h); batch_name=ASAP-0011198-002) was 116%, the remaining activity at 10 µM (Plk3(h); batch_name=ASAP-0011198-002) was 98% and the remaining activity at 10 µM (SAPK2a(h); batch_name=ASAP-0011198-002) was 97%. For the same compound, the remaining activity at 10 µM (c-RAF(h); batch_name=ASAP-0011198-002) was 105% and the remaining activity at 10 µM (eEF-2K(h); batch_name=ASAP-0011198-002) was 89%.
For CC(C)C(Nc1ncnc2[nH]ccc12)c1ccc2c(c1)S(=O)(=O)CCC2 (stereo not shown) [ASAP-0008327], the remaining activity at 10 µM (CDK1/cyclinB(h); batch_name=ASAP-0008327-001) was 129%, the remaining activity at 10 µM (CHK1(h); batch_name=ASAP-0008327-001) was 84% and the remaining activity at 10 µM (Lyn(h); batch_name=ASAP-0008327-001) was 112%. For the same compound, the remaining activity at 10 µM (PKG1α(h); batch_name=ASAP-0008327-001) was 88%, the remaining activity at 10 µM (Plk3(h); batch_name=ASAP-0008327-001) was 103% and the remaining activity at 10 µM (SAPK2a(h); batch_name=ASAP-0008327-001) was 108%. It also gave a remaining activity at 10 µM (c-RAF(h); batch_name=ASAP-0008327-001) of 97% and a remaining activity at 10 µM (eEF-2K(h); batch_name=ASAP-0008327-001) of 92%.
COc1ccc([C@@H](Cc2nnn[nH]2)NC(=O)c2ncnc3[nH]ccc23)cc1 [ASAP-0008340] gave a remaining activity at 10 µM (CDK1/cyclinB(h); batch_name=ASAP-0008340-001) of 108%, a remaining activity at 10 µM (CHK1(h); batch_name=ASAP-0008340-001) of 95% and a remaining activity at 10 µM (Lyn(h); batch_name=ASAP-0008340-001) of 111%. For the same compound, the remaining activity at 10 µM (PKG1α(h); batch_name=ASAP-0008340-001) was 95%, the remaining activity at 10 µM (Plk3(h); batch_name=ASAP-0008340-001) was 102% and the remaining activity at 10 µM (SAPK2a(h); batch_name=ASAP-0008340-001) was 100%. For the same compound, the remaining activity at 10 µM (c-RAF(h); batch_name=ASAP-0008340-001) was 90% and the remaining activity at 10 µM (eEF-2K(h); batch_name=ASAP-0008340-001) was 96%.
